According to publication PMC10954796, “Post-translational modifications of beta-amyloid alter its transport in the blood-brain barrier in vitro model” (Frontiers in Molecular Neuroscience, 2024):
Ends that are not written are not given here.

Biological target: T1, sRAGE (Homo sapiens, UniProt Q15109)
T1 construct: the soluble extracellular part of RAGE (sRAGE); purchased Abcam
Assay: Microscale thermophoresis, interaction with sRAGE
Format: binding
Settings: MST, Monolith NT.115; 50 nM RED-tris-NTA-labeled His-tag sRAGE; peptide 6.1 nM to 200 μM; 4% DMSO, 20% glycerol; mean ± SD, n = 4–5; read-out: dissociation constant (Kd) with sRAGE

T1 sequence (Q15109 23-342 limits assumed): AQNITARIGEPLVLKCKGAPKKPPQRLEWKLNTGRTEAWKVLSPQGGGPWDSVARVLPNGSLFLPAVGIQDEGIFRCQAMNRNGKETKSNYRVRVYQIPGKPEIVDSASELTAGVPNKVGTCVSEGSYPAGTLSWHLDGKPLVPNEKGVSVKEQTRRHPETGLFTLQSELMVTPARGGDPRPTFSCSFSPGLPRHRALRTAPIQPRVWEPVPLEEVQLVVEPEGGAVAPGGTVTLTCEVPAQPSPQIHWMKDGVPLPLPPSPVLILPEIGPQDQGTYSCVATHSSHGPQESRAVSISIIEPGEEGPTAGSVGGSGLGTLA

LVFFAEDVGSNKGAIIGLMVGGVVIA [Aβ17 − 42]
Kd: 10 ± 5 µM
